What was measured:
[1] = test system: Erb-B2 transformed 3T3 cells (RB-22); experiment: Growth of Erb-B2 transformed cells; assay type: cell-based; details: 25 μM
From the text: (§1) The cell lines employed were rat1, -EJ, which are rat1 cells stably expressing Val- 12 activated human Ha-ras gene (Land H. et al., Nature, 304, 596-602, (1983)); V-raf-3T3, which are 3T3 cells stably expressing the V-raf gene (Xu, N., et al., Proc. Natl. Acad. Sci., 90, 6741-6745); RB-22, which are 3T3 cells stably expressing the rat Erb-B2 gene (Peles, et al., EMBO J., 10, 2077-2086 (1991)) CO6O cells (SV40-CHO), which are CHE cells stably expressing the SV-40 T-antigen gene (Lavi, Proc. Natl. Acad. Sci., 78, 6144-6148 (1981)); human endometrial carcinoma cell line HEC1A, which are cells that express activated K-ras (Enomoto T., Cancer Res., 50, 6139-6145; mouse B16F10 melanoma cells, rat pheochromocytoma PC12 cells, […] cells CHE and COS cells.
(§2) HEC1A, V-raf-3T3 and SV40-CHE cells were grown in Dulbecco's modified Eagle medium (DMEM) containing 10% fetal calf serum (FCS), 4 mM L-glutamine, 10 μg/ml streptomycin and 10 U/ml penicillin. Rat1 and -EJ cells were grown in the same medium except that it was supplemented with 12.5 U/ml nyostatin. RB-22 cells were grown in modified DMEM (1 mM sodium pyruvate, 20 mM sodium bicarbonate)/10% FCS containing 4 mM L-glutamine, […] streptomycin, 10 U/ml penicillin. […]
(§3) The potent PPMTase inhibitor FTS was used to examine selectivity of the drugs towards ras-dependent growth-signaling pathways. […] Cells were counted on day 5 of the experiment.

[2] = test system: Rat1 cells stimulated with EGF or bFGF; experiment: Mitogenic effect of EGF and bFGF in Rat1 cells; assay type: cell-based, rat; details: 25 μM; for Number of cells (% of control): day 5
Procedure: The potent […] inhibitor FTS was used to examine selectivity of the drugs towards ras-dependent growth-signaling pathways. In these experiments cells transformed by Erb-B2, that acts upstream of ras in the ras pathway, and cells transformed by V-raf or by T-antigen, that act independently of ras, were studied. The cells were placed at a density of 2×10^3 cells/well and received on the day of plating either solvent (controls) or 25 μM FTS. Cells were counted on day 5 of the experiment. […] At this concentration, however, no effects of FTS on the growth of V-tar transformed or of T-antigen-transformed cells were observed. The results in Table VI also indicate that the mitogenic effect of bFGF and EGF in Rat1 cells is inhibited by FTS.

[3] = test system: V-raf transformed 3T3 cells; experiment: Growth of V-raf transformed cells; assay type: cell-based; details: 25 μM
From the text: as §1, §2, §3

[4] = test system: HEC1A, rat1 and ras-transformed rat1 cells; experiment: In vitro toxicity: MTT and trypan blue staining; assay type: cell-based; details: human (HEC1A), rat (rat1, ras-transformed rat1), 50 μM
From the text: Cells were counted following 3, 7 and 10 days of beginning of treatments with drugs. For counting, cells were detached from plates with trypsin/EDTA, and collected by a low speed spin in the presence of DMEM/10% FCS. The pelleted cells were resuspended in a small volume of DMEM/10% FCS and counted under the microscope. Viability of cells was estimated by staining with (3-(4,5-dimethylthiosol-2-yl)-2,5-diphenyltetrazolium bromide (MTT) and microscopic examination of the stained and unstained cells, or spectrophotometric estimation (OD490, 590) of the total stain in each well. Non viable cells were estimated by the trypan blue exclusion method.
In order to determine the long term effects of both FTA and FTS on cell survival, a colorometric method using MTT, which stains only live cells, was employed (Mosmen, F. J. Immunol. Meth., 65, 55-63 (1983), and tryptan blue exclusion staining in which only dead cells are stained, were employed. Cells were incubated with 50 μM of either FTA or FTS for a period of up to 5 days in culture. This concentration is 10-30 times the Ki values of FTS and FTA as calculated above. As control served cells incubated in 0.1% DMSO with no drug.

C57 black mice = experiment: In vivo toxicity, repeated s.c. or i.p. injection; details: 0.21 mg/kg s.c. or i.p. every 3 days for 2 weeks
Procedure: Toxicity tests in intact animals were performed with C57 black and with bulb-C mice.
Four groups, each comprising 9 mice, were used. Animals of group one received 100 μl s.c. injections of 150 μM FTS in salient solution containing 1% DMSO (0.21 mg drug/kg body weight). The drug was injected every 3 days for 2 weeks. Group two, which served as controls, received the solvent/saline solution for the same period of time.

[5] = test system: Ha-ras-transformed rat1 cells; experiment: Transformed phenotype (multi-layered clumps) of ras-transformed rat1 cells; assay type: cell-based, rat; details: 5 days
From the text: The two compounds had no effect on the morphology of the non-transformed cells. (FIG. 9B and 9C).

Bulb-C mice = experiment: in vivo
Procedure: (§4) Seven groups of five mice were used. The mice received a single i.p. dose of FTS in DMSO or the solvent only. Doses used in this experiment ranged from 0.5 mg/kg to 268 mg/kg.

in vivo = details: Bulb-C, mouse, in vivo, ip
Procedure: as §4

[6] = test system: SV-40 T-antigen transformed CHO cells; experiment: Growth of T-antigen transformed cells; assay type: cell-based; details: 25 μM
From the text: as §1, §2, §3

CC(C)=CCC/C(C)=C/CC/C(C)=C/CSc1ccccc1C(=O)O [FTS, (3,7,11-trimethyl-dodeca-2,6,10-trienyl)-2-thiobenzoic acid]
effect on growth of Erb-B2-transformed cells [1]: sufficient to inhibit growth | Number of cells (% of control) ([1]; Brb-B2 transformed 3T3, day 5): 36 % of control | effect on the mitogenic effect of bFGF and EGF in Rat1 cells [2]: inhibited | Number of cells (% of control) ([2]; Ras1 + 10 mg/ml ECP): 40 ± 5 % of control | Number of cells (% of control) ([2]; Ras1 + 50 mg/ml bPCP): 42 ± 3 % of control | effect on growth of V-raf transformed cells [3]: no effects | Number of cells (% of control) ([3]; Y-ref transformed 3T2, day 5): 93 ± 8 % of control | cells stained with trypan blue (dead) [4]: less than 5% | deaths out of the 18 drug treated animals (C57 black mice): one | effect on transformed phenotype ([5]; 5 μM, FIG. 9E): reversed the transformed phenotype | effect on transformed phenotype ([5]; 10 μM, FIG. 9F): reversed the transformed phenotype | Number of live mice (3 weeks following injection) (Bulb-C mice; 0.5 mg/kg single i.p.): 5/5 | Number of live mice (3 weeks following injection) (Bulb-C mice; 5.0 mg/kg single i.p.): 5/5 | Number of live mice (3 weeks following injection) (Bulb-C mice; 10.0 mg/kg single i.p.): 5/5 | survival (Bulb-C mice; 50 mg/kg or lower single i.p.): all mice survived | Number of live mice (3 weeks following injection) (Bulb-C mice; 50.0 mg/kg single i.p.): 5/5 | mice out of 5 died (Bulb-C mice; 134 mg/kg single i.p.): 2 | Number of live mice (3 weeks following injection) (Bulb-C mice; 134.0 mg/kg single i.p.): 3/5 | Number of live mice (3 weeks following injection) (Bulb-C mice; 268.0 mg/kg single i.p.): 0/5 | mortality (Bulb-C mice; highest dose (268 mg/kg) single i.p.): all mice died | LD50 at 3 weeks (in vivo): > 100 mg/kg | effect on growth of T-antigen-transformed cells [6]: no effects | Number of cells (% of control) ([6]; Y-antigen transformed CHO, day 5): 99 ± 9 % of control

Reference: patent USRE39682E1, “Farnesyl derivatives and pharmaceutical compositions containing them” (Ramot at Tel Aviv University Ltd., priority 1993, dated 2007)
